Article PMC7156724, “Potent BRD4 inhibitor suppresses cancer cell-macrophage interaction” (Nature Communications, 2020)
Where “and” joins values, the source holds several entries; their conditions need not be identical. Equal entries are not always repeated.

Key:
A375 melanoma cells = assay: AlamarBlue assay, A375; format: cell-based, human; details: for Cellular activity in melanoma cells (A375), alamarBlue: Fig.1g, replicates
Protocol: 3. AlamarBlue assay. AlamarBlue was made by resazurin sodium salt (Sigma, Cat
# 199303) dissolved in PBS.
NCI-H211, MDA-MB231 and A375 cells were plated in 96-well plates at approximately 30% confluence and left overnight to adhere. In the following day, […]
of treatment, 10 μl AlamarBlue reagent (0.3 mg/ml) was added to each well, and after 18h, the florescence intensity in each well was measured using a top-reading fluorescent plate reader with excitation at 530 nm and emission at 590 nm. […]

HIF1 reporter activity = assay: HIF1 luciferase reporter assay; format: cell-based, human; details: A2780 and A375 cells, 20% or 1% O2, 24 h
Protocol: Fig. 7 NHWD-870 inhibited CSF1 expression through suppressing BRD4 and HIF1α in tumor cells. a, b Representative western blot analysis of control (Ctrl) and BRD4 knockout (KO) A375 and A2780 cells exposed to 20% or 1% O2 for 24 hours. Selected from three independent experiments. c, d Representative western blot analysis of A375 and A2780 cells treated with DMSO or 25 nM NHWD-870 and exposed to 20% or 1% O2 for 24 h. Selected from three independent experiments. e Relative HIF1 luciferase reporter activity in control (Ctrl), BRD4 knockout (KO), or NHWD-870 treated A375 and A2780 cells exposed to 20% or 1% O2 for 24 h. Data are presented as mean ± SEM from three independent experiments. f RT-qPCR analyses of CSF1 in control (Ctrl), BRD4 knockout (KO), or NHWD-870 treated A375 and A2780 cells exposed to 20% or 1% O2 for 24 hours. Data are presented as mean ± SEM from three independent experiments. g RT-qPCR analyses of HIF1A in A375 or A2780 cells treated with 15 nM NHWD-870 or DMSO control for 24 h. Data are presented as mean ± SEM from three independent experiments. h Genome browser view of BRD4 ChIP-seq peaks on the HIF1A promoter. Shown are BRD4 ChIP and input control of A375 cells (top panel) and BRD4 ChIP of MDA-MB231 cells treated with DMSO or JQ-1 (bottom panel). i BRD4 ChIP-qPCR analyses of the HIF1A promoter in A2780 cells treated with DMSO or NHWD-870 for 72 h. Data are presented as mean ± SEM from three independent experiments. j RT-qPCR analyses of CSF1 in A375 and A2780 cells were transiently transduced with HIF1α, then exposed to 1% O2 for 24 h. Ctrl, Control. Data are presented as mean ± SEM from three independent experiments. k A model showing the effects of NHWD-870 on cancer cell-TAM interaction. NHWD-870 inhibits the proliferation and survival of TAMs partly by inhibiting BRD4 activity, HIF1α expression, and CSF1 secretion by tumor cells, and downregulating CSF1R mediated ERK and PI3K/AKT signaling in TAMs. p values were calculated using two-tailed, unpaired t tests in this figure. *p < 0.05; **p < 0.01; ***p < 0.001. Source data are provided as a Source Data file.
Supplementary Figure 15. […]
Data in (a) and (c-e) are presented as mean ± SEM from 3 independent experiments. p values were calculated using two-tailed, unpaired t tests. **, p<0.01; ***, p<0.001. Source data are provided as a Source […]
All patients had […]
undergone complete cytoreductive surgery.
14. Immunohistochemical staining. Paraffin-embedded implantation samples isolated from peritoneal metastasis of EOC patients (128 cases) were sectioned at a thickness of 4μm. To stain CD68, CSF1 and p-BRD4, the slides were first deparaffinized in xylene and rehydrated with gradient concentrations of alcohol under standard procedures. After rehydration, the slides were immersed in 0.01 mol/L citrate buffer (pH 6.0) and heated (95°C) for 15 min for antigen retrieval.
Then, the samples were incubated with 3% hydrogen peroxide (H2O2) for 10 minutes followed by 10% normal goat serum blocking for 10 minutes. Subsequently, the sections were incubated with rabbit polyclonal anti-human CD68 antibody (dilution 1:100) (sc-20060, Santa Cruz Biotechnology) and anti-human p-BRD4

[1] = test system: human melanoma patient-derived xenograft (PDX); assay: Human melanoma patient-derived xenograft (PDX) tumor growth; format: in vivo, NSG mice; details: Fig.3f, 1.5mg/kg, individual animals, in mm³ (unit assumed)
Excerpt: PO, oral administration; QD, once daily; BID, twice daily. b–d Tumor growth curves for A2780 ovarian tumor (n = 5) (b), TMD8 large B cell lymphoma (n = 6) (c), and B16F10 melanoma (n = 5) (d) bearing mice treated with the indicated compounds once daily for 11-21 days. e, f Tumor growth curves for A375 melanoma (n = 6) (e), and patient-derived xenograft (PDX) of melanoma (n = 5) (f) bearing mice treated with the indicated compounds once daily (5 days on, 2 days off) for 21 days. For d–f, NHWD-870 used is NHWD-870-HCl synthesized using Suzuki coupling route. Data are presented as mean ± SEM in (a, b, d, f) and mean + SEM in (c, e). p values were calculated using two-tailed, unpaired t tests. *p < 0.05; **p < 0.01; ***p < 0.001. Source data are provided as a Source Data file.
4–6 weeks old female BALB/c nude mice were used for most experiments, with the exception of 6–8 weeks old female C57BL/6 mice were used for B16F10 experiments, and 6–8 weeks old male BALB/c nude mice and SD rats were used for pharmacokinetic experiments. All animals were purchased from Shanghai SIPPR-Bk Lab Animal Co., Ltd. All animals were housed under a regimen of 12 h light/12 h dark cycles and specific pathogen-free conditions. 5×10^6 NCI-H526, ES-2, MDA-MB231, A2780, A375, B16F10, and TMD-8 cells (0.1 ml) were injected subcutaneously into female nude mice. The melanoma patient-derived xenograft model was derived from a human melanoma sample (BRAF, NARS and NF1 wild type, and p53 mutant) removed from a patient in Xiangya Hospital. Surgically removed tumor fragments were implanted subcutaneously into female NSG mice. When the tumors grew to ~1000 mm^3, they were harvested and cryopreserved or immediately re-implanted for expansion or experiments. Mouse body weight and tumor sizes were measured every 3 days. Once the tumors grew to 150–200 mm^3, mice were treated with the compounds as described in the Figures. 1 × 10^6 A2780 cells (1 ml) were injected into the abdominal cavity of nude mice. Ascitic volume and tumor weight were measured by an electronic balance. All the procedures were evaluated and approved by the Institutional Animal Care and Use Committee of Central South University and Yale University.

TAMs = assay: Transwell co-culture of pretreated A2780 cells and TAMs with CSF1 or anti-CSF1R antibodies; format: cell-based, mouse; details: co-culture with pretreated A2780 cells, MCSF-1 10ng/ml where added
Protocol: Fig. 6 CSF1/CSF1R signaling is critical for the tumor inhibitory effects of NHWD-870 and CSF1 induced ovarian cancer growth depends on macrophages. a Number of TAMs after treatment with the indicated concentration of CSF1 for 48 h. Data are presented as mean ± SEM from three independent experiments. b–d Schematics of the experiments (b). A2780 cells (pre-treated with DMSO or 100 nM NHWD-870 for 48 h) were seeded into the top chamber (transwell size: 0.4 μm), and TAMs (Mac, 40,000 cells per 24-well) in medium with PBS or 10 ng/ml CSF1 (c), or 50 ng/ml IgG or anti-CSF1R antibodies (d), were seeded into the bottom chamber. Shown are quantification of TAMs (c, d). Data are presented as mean ± SEM from three independent experiments. e Representative western blot analysis of A2780 cells stably transfected with CSF1 or empty vector (EV). Selected from three independent experiments. f Schematics of the animal experiments using an orthotopic mouse OC model, established by intraperitoneally injecting 1 × 10^6 (g–j) or 2 × 10^6 (k–m) human A2780 cells overexpressing CSF1 or control into female recipient nude mice. Mice were then treated with/without liposomal clodronate (LC) for 45 days (g–j) or treated with/without NHWD-870 (PO, QD, 3 mg/kg) for 37 days (k–m). g Increased mouse body weight was measured at the indicated time points (day 0-45 after LC treatment). h–j Net tumor weight (h), ascitic fluid volumes (i) tumor implantations in peritoneum, omentum and pevic cavity (j) were measured at day 45 from LC treatment. k–m Net tumor weight (k), ascitic fluid volumes (l) tumor implantations in peritoneum, omentum and pevic cavity (m) were measured at day 37 after NHWD-870 treatment. For g–m, data are presented as mean ± SEM from five different mice. p values were calculated using two-tailed, unpaired t tests in this figure. n.s, not significant; *p < 0.05; **p < 0.01; and ***p < 0.001. Source data are provided as a Source Data file.
CD45^+CD11b^+F4/80^+ TAMs were isolated from peritoneal metastasis of A2780 tumor-bearing mice and cultured in RPMI-1640 supplemented with 10% FBS, 1% penicillin/streptomycin, and 0–50 ng/ml CSF1 (R&D Systems) as indicated according to standard protocols. In the cancer cell-macrophage co-culture experiments, CSF1 was not added. In the transwell (Corning, pore size, 0.4 μm) co-culture experiments, tumor cells were placed into the upper chamber, and TAMs were seeded into the lower chamber.

**Q.** Which “Cellular activity in melanoma cells (A375), alamarBlue” value (“Cellular activity in melanoma cells” below) (A375 melanoma cells; concentration(nM) 0.21442) does the source give for `Cc1sc2c(c1C)C(c1ccc(Cl)cc1)=N[C@@H](CC(=O)Nc1ccc(O)cc1)c1nnc(C)n1-2` [OTX-015] here?
**A.** The value was 0.2687 and 0.138.

**Q.** And the “Cellular activity in melanoma cells” value (A375 melanoma cells; concentration(nM) 0.31236)?
**A.** The value was 1.399 and 1.862.

**Q.** And the “Cellular activity in melanoma cells” value (A375 melanoma cells; concentration(nM) 0.4103)?
**A.** The value was 3 and 0.4387.

**Q.** And the “Cellular activity in melanoma cells” value (A375 melanoma cells; concentration(nM) 0.6032)?
**A.** The value was 12.3903 and 10.5044.

**Q.** What about the “Cellular activity in melanoma cells” value (A375 melanoma cells; concentration(nM) 1.2043) of the same molecule?
**A.** The value was 24.9941 and 17.1565.

**Q.** And the “Cellular activity in melanoma cells” value (A375 melanoma cells; concentration(nM) 1.8024)?
**A.** Its value is 69.0356 and 72.751.

**Q.** And the “Cellular activity in melanoma cells” value (A375 melanoma cells; concentration(nM) 2.4)?
**A.** Its value is 91.1738 and 98.6047.

**Q.** And the “Cellular activity in melanoma cells” value (A375 melanoma cells; concentration(nM) 3)?
**A.** Its value is 100.838 and 100.296.

**Q.** What about the IC50 (A375 melanoma cells; Homo sapiens, A-375, nM printed in b8, the picture prints no unit, read-out: IC50, cellular activity in A375 (alamarBlue)) of the same molecule?
**A.** The IC50 was 34.8 nM.

**Q.** What about the HIF1 reporter activity (HIF1 reporter activity) of the same molecule?
**A.** The HIF1 reporter activity was “significantly decreased HIF1 reporter activity”.

**Q.** `Cc1nnn(C)c1-c1cnc2c3c4cnn(C)c4ccc3n([C@H](c3ccccc3)C3CCOCC3)c2c1.Cl` [870-HCI] was tested. Which Tumor volume ([1]; day 0) did it give?
**A.** The Tumor volume was 0.

**Q.** What about the Tumor volume ([1]; day 3) of the same molecule?
**A.** The Tumor volume was 76 and 83 and 79 and 110 and 130.

**Q.** And the Tumor volume ([1]; day 7)?
**A.** Its Tumor volume is 143 and 132 and 174 and 201 and 230.

**Q.** What about the Tumor volume ([1]; day 11) of the same molecule?
**A.** Its Tumor volume is 195 and 185 and 250 and 289 and 310.

**Q.** And the Tumor volume ([1]; day 15)?
**A.** The Tumor volume was 264 and 276 and 364 and 396 and 423.

**Q.** And the Tumor volume ([1]; day 19)?
**A.** The Tumor volume was 349 and 303 and 474 and 530 and 503.

**Q.** What about the Tumor volume ([1]; day 21) of the same molecule?
**A.** The Tumor volume was 425 and 403 and 503 and 684 and 603.

B1: MCSF-1 (protein, UniProt P09603 33-554, looked up)
Macrophage colony-stimulating …: EEVSEYCSHMIGSGHLQSLQRLIDSQMETSCQITFEFVDQEQLKDPVCYLKKAFLLVQDIMEDTMRFRDNTPNAIAIVQLQELSLRLKSCFTKDYEEHDKACVRTFYETPLQLLEKVKNVFNETKNLLDKDWNIFSKNCNNSFAECSSQDVVTKPDCNCLYPKAIPSSDPASVSPHQPLAPSMAPVAGLTWEDSEGTEGSSLLPGEQPLHTVDPGSAKQRPPRSTCQSFEPPETPVVKDSTIGGSPQPRPSVGAFNPGMEDILDSAMGTNWVPEEASGEASEIPVPQGTELSPSRPGGGSMQTEPARPSNFLSASSPLPASAKGQQPADVTGTALPRVGPVRPTGQDWNHTPQKTDHPSALLRDPPEPGSPRISSLRPQGLSNPSTLSAQPQLSRSHSSGSVLPLGELEGRRSTRDRRSPAEPEGGPASEGAARPLPRFNSVPLTDTGHERQSEGSFSPQLQESVFHLLVPSVILVLLAVGGLLFYRWRRRSHQEPQRADSPLEQPEGSPLTQDDRQVELPV
**Q.** What does the source list for B1?
**A.** Number of TAMs (Fig.6c) (TAMs; time 0): 5; Number of TAMs (Fig.6c) (TAMs; time 24): 6.1 and 7 and 6.4; Number of TAMs (Fig.6c) (TAMs; time 48): 18.4 and 16.8 and 17.9; Number of TAMs (Fig.6c) (TAMs; time 72): 34.1 and 29.5 and 32.5
